What was measured:
Format in all cases: in vivo
[1] = tested on: Russian thistle (Salsola iberica); test: Test D pre-/postemergence: Russian thistle; settings: Postemergence; for Plant response rating, Russian Thistle: 16 g ai/ha, scale 0 to 100
Method in brief: (§1)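 Applied as a non-phytotoxic solvent formulation with surfactant, compounds were tested preemergence in silt loam and postemergence on seedlings 2 to 18 cm high in peat-vermiculite medium. Evaluation was visual, 0 meaning no effect and 100 complete control, at 14 to 21 days.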

[2] = tested on: barley, winter (winter barley, Hordeum vulgare); test: Test D pre-/postemergence: barley, winter
Method in brief: as §1

[3] = tested on: corn (Zea mays); test: Test F pre-/postemergence: corn; settings: Preemergence
Method in brief: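 0–100 visual control scores, taken 14–21 d after application in the greenhouse. Preemergence treatment was made to silt loam soil at sowing. Postemergence sprays hit 1- to 4-leaf plants (2–18 cm) in peat/vermiculite mix. Surfactant-containing non-phytotoxic solvent served as the vehicle.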

[4] = tested on: lambsquarters (Chenopodium album); test: Test D pre-/postemergence: lambsquarters
Method in brief: as §1

[5] = tested on: ragweed (common ragweed, Ambrosia elatior); test: Test F pre-/postemergence: ragweed; settings: Preemergence
Source text: (§2) Seeds of plant species selected from corn (Zea mays), soybean (Glycine max), velvetleaf (Abutilon theophrasti), lambsquarters (Chenopodium album), poinsettia, wild (wild poinsettia, Euphorbia heterophylla), pigweed, palmer (palmer pigweed, Amaranthus palmeri), waterhemp (common waterhemp, Amaranthus rudis), surinam grass (Brachiaria decumbens), crabgrass, Brazil (Brazilian crabgrass, Digitaria horizontalis), panicum, fall (fall panicum Panicum dichotomiflorum), crabgrass, large (large crabgrass, Digitaria sanguinalis), foxtail, giant (giant foxtail, Setaria faberii), foxtail, green (green foxtail Setaria viridis), goosegrass (Eleusine indica), ragweed (common ragweed, Ambrosia elatior), barnyardgrass (Echinochloa crus-galli), sandbur (southern sandbur, Cenchrus echinatus), arrowleaf sida (Sida rhombifolia), ryegrass, Italian (Italian ryegrass, Lolium multiflorum), dayflower, VA (Virginia (VA) dayflower, Commelina virginica), field bindweed (Convolvulus arvensis), cocklebur (common cocklebur, Xanthium strumarium), morningglory (Ipomoea coccinea), nightshade (eastern black nightshade, Solanum ptycanthum), kochia (Kochia scoparia), nutsedge, yellow (yellow nutsedge, Cyperus esculentus), johnsongrass (Sorghum halepense), smartweed (ladysthumb smartweed, Polygonum persicaria), and beggarticks (hairy beggarticks, Bidens pilosa), were planted into a silt loam soil and treated preemergence with test chemicals formulated in a non-phytotoxic solvent mixture which included a surfactant. At the same time, plants selected from these crop and weed species and also pigweed (Amaranthus retroflexus), waterhemp_RES1 (ALS/Triazine resistant common waterhemp, Amaranthus rudis) and waterhemp_RES2 (ALS/HPPD resistant common waterhemp, Amaranthus rudis) were planted in pots containing a planting medium comprising spaghnum peat moss, vermiculite, wetting agent and starter nutrients treated with postemergence applications of some of the test chemicals formulated in the same manner. Plants ranged in height from 2 to 18 cm for postemergence treatments (1- to 4-leaf stage).
(§3) Treated plants and controls were maintained in a greenhouse for 14 to 21 days, after which time all species were compared to controls and visually evaluated. Plant response ratings, summarized in Table E, are based on a scale of 0 to 100 where 0 is no effect and 100 is complete control. A dash (-) response means no test result.

[6] = tested on: speedwell (bird's-eye speedwell, Veronica persica); test: Test D pre-/postemergence: speedwell; settings: Preemergence
Method in brief: as §1

[7] = tested on: dayflower, VA (Virginia (VA) dayflower, Commelina virginica); test: Test F pre-/postemergence: dayflower, VA; settings: Preemergence
Source text: as §2, §3

[8] = tested on: goosegrass (Eleusine indica); test: Test F pre-/postemergence: goosegrass; settings: Preemergence
Source text: as §2, §3

[9] = tested on: barley, spring (spring barley, Hordeum vulgare); test: Test D pre-/postemergence: barley, spring
Method in brief: as §1

[10] = tested on: lambsquarters (Chenopodium album); test: Test F pre-/postemergence: lambsquarters; settings: Preemergence
Source text: as §2, §3

[11] = 31 g ai/ha, scale 0 to 100 (0 no effect, 100 complete control)
[12] = 62 g ai/ha, scale 0 to 100 (0 no effect, 100 complete control)
[13] = 125 g ai/ha, scale 0 to 100, 0 no effect, 100 complete control
[14] = Postemergence, 31 g ai/ha, scale 0 to 100 (0 no effect, 100 complete control)
[15] = Postemergence, 62 g ai/ha, scale 0 to 100 (0 no effect, 100 complete control)
[16] = Postemergence, 125 g ai/ha, scale 0 to 100, 0 no effect, 100 complete control
[17] = Postemergence, 16 g ai/ha, scale 0 to 100
[18] = Preemergence, 16 g ai/ha, scale 0 to 100, 0 no effect, 100 complete control
[19] = Preemergence, 31 g ai/ha, scale 0 to 100, 0 no effect, 100 complete control
[20] = Preemergence, 62 g ai/ha, scale 0 to 100
[21] = Preemergence, 125 g ai/ha, scale 0 to 100
[22] = 16 g ai/ha, scale 0 to 100, 0 no effect, 100 complete control
[23] = 31 g ai/ha, scale 0 to 100, 0 no effect, 100 complete control

## Cc1nn(-c2ccc(C(F)(F)F)c(F)c2)nc1Oc1ccnc(C(F)(F)F)c1 [Compound 148]
[1]; [11]
  Plant response rating: Russian Thistle: 75
[1]; [12]
  Plant response rating: Russian Thistle: 85
[1]; [13]
  Plant response rating: Russian Thistle: 75
[1]
  Plant response rating, Russian Thistle: 65
[2]; [14]
  Plant response rating: Barley, Winter: 20
[2]; [15]
  Plant response rating: Barley, Winter: 25
[2]; [16]
  Plant response rating: Barley, Winter: 30
[2]; [17]
  Plant response rating, Barley, Winter: 10
[2]; [18]
  Plant response rating, Barley, Winter: 0
[2]; [19]
  Plant response rating, Barley, Winter: 0
[2]; [20]
  Plant response rating, Barley, Winter: 5
[2]; [21]
  Plant response rating, Barley, Winter: 5
[3]; [22]
  Plant response rating, Corn: 0
[3]; [23]
  Plant response rating, Corn: 0
[3]; 62 g ai/ha, scale 0 to 100
  Plant response rating, Corn: 0
[3]; 125 g ai/ha, scale 0 to 100
  Plant response rating, Corn: 0
[3]; 250 g ai/ha, scale 0 to 100
  Plant response rating, Corn: 5
[4]; [14]
  Plant response rating: Lambsquarters: 85
[4]; [15]
  Plant response rating: Lambsquarters: 95
[4]; [16]
  Plant response rating: Lambsquarters: 95
[4]; [17]
  Plant response rating, Lambsquarters: 85
[4]; [18]
  Plant response rating, Lambsquarters: 35
[4]; [19]
  Plant response rating, Lambsquarters: 40
[4]; [20]
  Plant response rating, Lambsquarters: 80
[4]; [21]
  Plant response rating, Lambsquarters: 90
[5]; [22]
  Plant response rating, Ragweed: 0
[5]; [23]
  Plant response rating, Ragweed: 0
[5]; 125 g ai/ha, scale 0 to 100
  Plant response rating, Ragweed: 75
[5]; 250 g ai/ha, scale 0 to 100
  Plant response rating, Ragweed: 75
[6]; [22]
  Plant response rating, Speedwell: 5
[6]; [23]
  Plant response rating, Speedwell: 95
[6]; 62 g ai/ha, scale 0 to 100
  Plant response rating, Speedwell: 50
[6]; 125 g ai/ha, scale 0 to 100
  Plant response rating, Speedwell: 100
[7]; [22]
  Plant response rating, Dayflower, VA: 0
[7]; [23]
  Plant response rating, Dayflower, VA: 40
[7]; 62 g ai/ha, scale 0 to 100
  Plant response rating, Dayflower, VA: 40
[7]; 125 g ai/ha, scale 0 to 100
  Plant response rating, Dayflower, VA: 65
[7]; 250 g ai/ha, scale 0 to 100
  Plant response rating, Dayflower, VA: 90
[8]; [22]
  Plant response rating, Goosegrass: 25
[8]; [23]
  Plant response rating, Goosegrass: 98
[8]; 62 g ai/ha, scale 0 to 100
  Plant response rating, Goosegrass: 100
[8]; 125 g ai/ha, scale 0 to 100
  Plant response rating, Goosegrass: 100
[8]; 250 g ai/ha, scale 0 to 100
  Plant response rating, Goosegrass: 100
[9]; [14]
  Plant response rating: Barley, Spring: 15
[9]; [15]
  Plant response rating: Barley, Spring: 20
[9]; [16]
  Plant response rating: Barley, Spring: 25
[9]; [17]
  Plant response rating, Barley, Spring: 10
[9]; [18]
  Plant response rating, Barley, Spring: 0
[9]; [19]
  Plant response rating, Barley, Spring: 0
[9]; [20]
  Plant response rating, Barley, Spring: 5
[9]; [21]
  Plant response rating, Barley, Spring: 5
[10]; [22]
  Plant response rating, Lambsquarters: 0
[10]; [23]
  Plant response rating, Lambsquarters: 50
[10]; 62 g ai/ha, scale 0 to 100
  Plant response rating, Lambsquarters: 98
[10]; 125 g ai/ha, scale 0 to 100
  Plant response rating, Lambsquarters: 100
[10]; 250 g ai/ha, scale 0 to 100
  Plant response rating, Lambsquarters: 100

## CCc1nn(-c2ccc(F)cc2)nc1Cc1ccnc(C(F)(F)F)c1 [Compound 154]
[3]; [22]
  Plant response rating, Corn: 0
[3]; [23]
  Plant response rating, Corn: 0
[3]; 62 g ai/ha, scale 0 to 100
  Plant response rating, Corn: 0
[3]; 125 g ai/ha, scale 0 to 100
  Plant response rating, Corn: 5
[3]; 250 g ai/ha, scale 0 to 100
  Plant response rating, Corn: 5
[5]; [22]
  Plant response rating, Ragweed: 0
[5]; [23]
  Plant response rating, Ragweed: 0
[5]; 125 g ai/ha, scale 0 to 100
  Plant response rating, Ragweed: 0
[5]; 250 g ai/ha, scale 0 to 100
  Plant response rating, Ragweed: 40
[7]; [22]
  Plant response rating, Dayflower, VA: 0
[7]; [23]
  Plant response rating, Dayflower, VA: 0
[7]; 62 g ai/ha, scale 0 to 100
  Plant response rating, Dayflower, VA: 25
[7]; 125 g ai/ha, scale 0 to 100
  Plant response rating, Dayflower, VA: 70
[7]; 250 g ai/ha, scale 0 to 100
  Plant response rating, Dayflower, VA: 90
[8]; [22]
  Plant response rating, Goosegrass: 10
[8]; [23]
  Plant response rating, Goosegrass: 95
[8]; 62 g ai/ha, scale 0 to 100
  Plant response rating, Goosegrass: 95
[8]; 125 g ai/ha, scale 0 to 100
  Plant response rating, Goosegrass: 100
[8]; 250 g ai/ha, scale 0 to 100
  Plant response rating, Goosegrass: 100
[10]; [22]
  Plant response rating, Lambsquarters: 0
[10]; [23]
  Plant response rating, Lambsquarters: 30
[10]; 62 g ai/ha, scale 0 to 100
  Plant response rating, Lambsquarters: 75
[10]; 125 g ai/ha, scale 0 to 100
  Plant response rating, Lambsquarters: 98
[10]; 250 g ai/ha, scale 0 to 100
  Plant response rating, Lambsquarters: 98

## CCc1nn(-c2ccc(C(F)(F)F)cc2)nc1Cc1ccnc(C(F)(F)F)c1 [Compound 155]
[1]; [11]
  Plant response rating: Russian Thistle: 80
[1]; [12]
  Plant response rating: Russian Thistle: 85
[1]; [13]
  Plant response rating: Russian Thistle: 85
[1]
  Plant response rating, Russian Thistle: 70
[2]; [14]
  Plant response rating: Barley, Winter: 20
[2]; [15]
  Plant response rating: Barley, Winter: 25
[2]; [16]
  Plant response rating: Barley, Winter: 35
[2]; [17]
  Plant response rating, Barley, Winter: 15
[2]; [18]
  Plant response rating, Barley, Winter: 5
[2]; [19]
  Plant response rating, Barley, Winter: 0
[2]; [20]
  Plant response rating, Barley, Winter: 5
[2]; [21]
  Plant response rating, Barley, Winter: 10
[3]; 62 g ai/ha, scale 0 to 100
  Plant response rating, Corn: 10
[3]; 125 g ai/ha, scale 0 to 100
  Plant response rating, Corn: 15
[3]; 250 g ai/ha, scale 0 to 100
  Plant response rating, Corn: 15
[4]; [14]
  Plant response rating: Lambsquarters: 95
[4]; [15]
  Plant response rating: Lambsquarters: 90
[4]; [16]
  Plant response rating: Lambsquarters: 95
[4]; [17]
  Plant response rating, Lambsquarters: 95
[4]; [18]
  Plant response rating, Lambsquarters: 20
[4]; [19]
  Plant response rating, Lambsquarters: 55
[4]; [20]
  Plant response rating, Lambsquarters: 90
[4]; [21]
  Plant response rating, Lambsquarters: 90
[5]; 125 g ai/ha, scale 0 to 100
  Plant response rating, Ragweed: 50
[5]; 250 g ai/ha, scale 0 to 100
  Plant response rating, Ragweed: 80
[6]; [22]
  Plant response rating, Speedwell: 100
[6]; [23]
  Plant response rating, Speedwell: 100
[6]; 62 g ai/ha, scale 0 to 100
  Plant response rating, Speedwell: 100
[6]; 125 g ai/ha, scale 0 to 100
  Plant response rating, Speedwell: 100
[7]; 62 g ai/ha, scale 0 to 100
  Plant response rating, Dayflower, VA: 20
[7]; 125 g ai/ha, scale 0 to 100
  Plant response rating, Dayflower, VA: 35
[7]; 250 g ai/ha, scale 0 to 100
  Plant response rating, Dayflower, VA: 60
[8]; 62 g ai/ha, scale 0 to 100
  Plant response rating, Goosegrass: 100
[8]; 125 g ai/ha, scale 0 to 100
  Plant response rating, Goosegrass: 100
[8]; 250 g ai/ha, scale 0 to 100
  Plant response rating, Goosegrass: 100
[9]; [14]
  Plant response rating: Barley, Spring: 15
[9]; [15]
  Plant response rating: Barley, Spring: 25
[9]; [16]
  Plant response rating: Barley, Spring: 35
[9]; [17]
  Plant response rating, Barley, Spring: 10
[9]; [18]
  Plant response rating, Barley, Spring: 0
[9]; [19]
  Plant response rating, Barley, Spring: 5
[9]; [20]
  Plant response rating, Barley, Spring: 5
[9]; [21]
  Plant response rating, Barley, Spring: 10
[10]; 62 g ai/ha, scale 0 to 100
  Plant response rating, Lambsquarters: 98
[10]; 125 g ai/ha, scale 0 to 100
  Plant response rating, Lambsquarters: 98
[10]; 250 g ai/ha, scale 0 to 100
  Plant response rating, Lambsquarters: 98

Source: US9302999B2, “Substituted triazoles as herbicides” (E. I. DU PONT DE NEMOURS AND COMPANY, priority 2012, dated 2016)
